Measured values: paper PMC2848328 (The Journal of biological chemistry, 2006)

Molecular target: T1, AMAN-2 (F58H1.1; Golgi α-mannosidase II) (Caenorhabditis elegans, UniProt Q2PJ74)
T1 sequence (Q2PJ74 125-1145): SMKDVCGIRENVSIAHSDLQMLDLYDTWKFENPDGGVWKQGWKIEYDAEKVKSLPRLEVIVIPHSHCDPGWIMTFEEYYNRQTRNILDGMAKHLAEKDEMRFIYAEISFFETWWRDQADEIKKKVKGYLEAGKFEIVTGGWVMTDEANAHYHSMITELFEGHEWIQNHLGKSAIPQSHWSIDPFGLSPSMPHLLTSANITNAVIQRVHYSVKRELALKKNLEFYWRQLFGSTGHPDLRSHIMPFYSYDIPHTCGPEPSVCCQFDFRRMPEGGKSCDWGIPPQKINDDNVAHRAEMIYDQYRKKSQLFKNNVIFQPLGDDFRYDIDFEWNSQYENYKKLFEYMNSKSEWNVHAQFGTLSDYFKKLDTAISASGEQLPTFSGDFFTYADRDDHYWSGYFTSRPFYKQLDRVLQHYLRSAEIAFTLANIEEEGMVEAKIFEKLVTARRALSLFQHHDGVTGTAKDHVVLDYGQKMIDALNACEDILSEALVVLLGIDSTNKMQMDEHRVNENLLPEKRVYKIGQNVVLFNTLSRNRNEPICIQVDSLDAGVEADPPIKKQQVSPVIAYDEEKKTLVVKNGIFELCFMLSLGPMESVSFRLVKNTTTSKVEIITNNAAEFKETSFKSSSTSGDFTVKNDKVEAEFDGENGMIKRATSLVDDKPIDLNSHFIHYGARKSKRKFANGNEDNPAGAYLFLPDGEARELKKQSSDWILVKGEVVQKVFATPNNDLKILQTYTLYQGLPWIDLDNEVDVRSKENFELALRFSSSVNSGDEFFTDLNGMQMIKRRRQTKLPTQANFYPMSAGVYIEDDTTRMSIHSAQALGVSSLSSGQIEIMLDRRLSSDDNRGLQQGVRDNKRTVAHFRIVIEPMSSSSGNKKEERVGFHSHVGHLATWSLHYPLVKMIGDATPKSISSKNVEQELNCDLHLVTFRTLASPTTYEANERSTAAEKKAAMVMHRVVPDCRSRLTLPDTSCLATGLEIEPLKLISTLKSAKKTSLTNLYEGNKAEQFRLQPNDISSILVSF
Assay: inhibition of p-nitrophenyl-α-mannoside hydrolysis, A405
Format: biochemical
Conditions: read-out: % inhibition at 1 mM

inhibition at 1000 µM: ~45%
SMILES: OC[C@H]1NC[C@@H](O)[C@@H](O)[C@@H]1O [deoxymannojirimycin]
